Laboratory results taken from patent US7090996B2, “Process for examining membrane enclosed biocompartments” (Micronas GmbH, priority 2000, dated 2006).

System: biocompartments 1 (biological cells)
Assay: Micro-flow chamber ISFET measurement of acidification and respiratory activity of biocompartments
Type: cell-based
Details: for acidification ΔpH−31 activated by the biocompartments / respiratory activity of the biocompartments: agent in culture medium, stand-still phase of pump, compared with agent-free medium (FIG. 5)
Description: In a process for the examining of membrane enclosed biocompartments, biocompartments 1 were designed as biological cells placed in a micro-flow chamber 2. […] The space 3 is provided with an inlet opening 4 and an exit opening 5 for nutrient or culture medium. The chamber housing has a chamber base part 6 and a top part 7 which fits said base part 6 and the two parts are sealed liquid tight to one another by an interposed sealing ring 8.
The inlet opening 4 of the measurement space is connected to the measuring space 3 by a feed conduit 9, which in turn is connected to a culture medium supply 10. A pump 11 is placed in the feed canal 9 for the transport of the culture medium. The pump 11 can be turned on and off by means of a control apparatus (not shown). The exit opening 5 of the micro-flow chamber 2 is joined by means of a connecting line 12, to an exhaust opening 13 for release of the culture medium. In the measuring space 3, the biocompartments 1 stand in contact with the culture medium.
In the base of the measuring space 3, are placed a plurality of ISFET's 14. […] Between drain 16 and source 17, is a gate 18. Gate 18, drain 16 and source 17 are electrically insulated from the measurement space 3 by means of a silicon nitride layer (not shown). The silicon nitride layer forms on its side remote from the gate 18, an active sensor layer. By means of which layer, the ISFET 14 is controllable through the hydrogen ions present in the culture medium. Gate 18, drain 16 and source 17 of the ISFET are connected with a known evaluation apparatus for the determination of the pH value of the culture medium which is somewhat proportional to measurement signal of the respective ISFET 14.
As is particularly well presented in FIG. 2, an electrode 19 is placed in close proximity to the gates 18. This electrode 19 is constructed of a noble metal, such as palladium and is in direct contact with the culture medium.
A reference electrode 20 is paired with the operational electrode 19, which contacts the culture medium at a spatial distance from the ISFET 14. […] The reference electrode 20 and the operational electrodes 19 can be connected to an electrical source of potential for the application of an electric potential on the culture medium.
By means of the above described measurement arrangement, the respiratory activities of the biocompartments 1 can be indirectly measured. To carry out this purpose, the pump 11, which acts to transport the through-put of the culture medium through the measurement space 3, is temporarily stopped. In FIG. 4, the period of time during which the through-put in the measurement space 3 is stopped, is designated as the time T1 (stopping the pump 11) and T2 (starting the pump 11). This time interval can run, for instance, some 8 minutes.
Subsequently, by means of the ISFET 14, a first pH−1 is measured for the pH value of the culture medium, preparatory to a first pH measurement pair. […] When this occurs, this potential preferably is set at some −700 to −800 millivolts. In the embodiment of FIG. 3, this potential is applied to the electrodes 19, 20. The surface of the operational electrode 19 exposed to contact with the culture medium is chosen to be as small as possible with potential measuring preferably less than 1000 μm^2, so that, during the application of electrical voltage, the consumption of oxygen at the operational electrode 19 will be held at the lowest possible level. […]

| Molecule | acidification ΔpH−31 activated by the biocompartments | respiratory activity of the biocompartments | viability of the biocompartments (agent in culture medium (FIG. 7)) |
| --- | --- | --- | --- |
| O=C(O)CI [iodine acetate] | recedes | increase | – |
| Triton® | no longer influence the culture medium | no further sign of respiratory activity | dying out |
